# Structures can show the parent of a compound that is named as a salt.
# Tests used:
# [1] = Dialysis test of vinorelbine incorporation into the oil phase of an emulsion; conditions: for effect of stabilizer on vinorelbine incorporation into the oil phase (vinorelbine concentration in PBS): dialysis against PBS pH 7.4, emulsion with […] (w/w) vinorelbine bitartrate, FIG. 1
# Procedure: The concentration of each stabilizer added into formulation is: 1.57% (w/w) for sodium oleate, 2.73% (w/w) for vitamin E succinate, 2.46% (w/w) for riboflavin-5-phosphate sodium and 2.52% (w/w) for cholesterol sulfate. A formulation without any stabilizer (“control”) and a formulation with extra Phospholipon 90G were also evaluated in the study.
# The drug incorporation into the oil phase was tested using a dialysis method developed specifically for this purpose. This method involved filling 500 mg of an emulsion into a Slide-A-Lyzer dialysis cassette with 10,000 MW cutoffs, placing the cassette in 70 mL phosphate buffered saline (PBS), pH 7.4 and shaking the solution on a platform shaker at 100 RPM.
# [2] = in distilled water; bitartrate salt form; cited from earlier work
SMILES,effect of stabilizer on vinorelbine incorporation into the oil phase (vinorelbine concentration in PBS) [1],further results
"Cc1cc2nc3c(=O)[nH]c(=O)nc-3n(C[C@H](O)[C@H](O)[C@H](O)COP(=O)([O-])O)c2cc1C.[Na+] [riboflavin-5-phosphate, riboflavin-5-phosphate sodium]",most effective stabilizers,–
"CCC1=C[C@@H]2CN(C1)Cc1c([nH]c3ccccc13)[C@@](C(=O)OC)(c1cc3c(cc1OC)N(C)[C@H]1[C@@](O)(C(=O)OC)[C@H](OC(C)=O)[C@]4(CC)C=CCN5CC[C@]31[C@@H]54)C2 [vinorelbine, reference compound]",–,incorporation of vinorelbine in the oil phase ([1]; emulsion without a stabilizer): present primarily in the aqueous phase
CCCCCCCC/C=C\CCCCCCCC(=O)[O-].[Na+] [sodium oleate],most effective stabilizers,"partition of vinorelbine into the aqueous phase ([1]; vinorelbine-to-oleate molar ratio of 1:4 (charge ratio of 1:1), dialysis, 28 hours, FIG. 2): almost completely stopped the partition of vinorelbine into the aqueous phase"
"Cc1c(C)c2c(c(C)c1OC(=O)CCC(=O)O)CC[C@@](C)(CCC[C@H](C)CCC[C@H](C)CCCC(C)C)O2 [Vitamin E succinate, vitamin E succinate]",most effective stabilizers,–
"CCC1=C[C@@H]2CN(C1)Cc1c([nH]c3ccccc13)[C@@](C(=O)OC)(c1cc3c(cc1OC)N(C)[C@H]1[C@@](O)(C(=O)OC)[C@H](OC(C)=O)[C@]4(CC)C=CCN5CC[C@]31[C@@H]54)C2 (relative stereo) [vinorelbine bitartrate, 3′,4′-didehydro-4′-deoxy-C′-norvincaleukoblastine [R-(R*,R*)-2,3-dihydroxybutanedioate (1:2) (salt)]]",–,aqueous solubility [2]: > 1000 mg/mL

# — patent US8222268B2, “Methods for reducing vein irritation” (Adventrx Pharmaceuticals, Inc., priority 2004, dated 2012)
